Laboratory results taken from patent publication US20240425482A1, “PYRROLIDINE DERIVATIVES AS DDRS INHIBITORS” (CHIESI FARMACEUTICI S.P.A., priority 2021, published 2024).

Assays:
DDR2 = DDR2 (Homo sapiens (Human), UniProt Q16832); assay: DDR2 LanthaScreen Europium Kinase Binding assay; conditions: binding; 5 nM DDR2, 10 nM Kinase Tracer 178, 1 hour at rt; Ki from IC50 by Cheng-Prusoff; read-out: Ki DDR2
Procedure: (§1) DDR1 and DDR2 binding assays were performed using Life Technologies LanthaScreen™ Europium Kinase Binding assay. The compounds were incubated with 5 nM DDR1 (Carna Biosciences) or 5 nM DDR2 (Life Technologies) for 1 hour at rt in white 384-well OptiPlate (PerkinElmer), containing 20 nM or 10 nM Kinase Tracer 178 respectively and 2 nM Europium labelled anti-GST antibody (Life Technologies) in assay buffer (50 mM HEPES pH 7.5, 10 mM MgCI2, 1 mM EGTA and 0.01% BRIJ35). The ratio of fluorescence emission 665 nm/615 nm after excitation at 340 nm was obtained using the Tecan Spark 20M plate reader. IC50 values were determined in GraphPad Prism 7.0 software, using 4 parameter model: log(inhibitor) vs. response. IC50 values were converted in Ki using the Cheng-Prusoff equation (Ki=IC50/(1+[Tracer]/Kd).
(§2) Compounds C1 and C2 were tested in the same binding assay described above.

DDR1 = DDR1 (Homo sapiens (Human), UniProt Q08345); assay: DDR1 LanthaScreen Europium Kinase Binding assay; conditions: binding; 5 nM DDR1, 20 nM Kinase Tracer 178, 1 hour at rt; Ki from IC50 by Cheng-Prusoff; read-out: Ki DDR1
Procedure: as §1, §2

Sequence of DDR1 (Q08345 19-913): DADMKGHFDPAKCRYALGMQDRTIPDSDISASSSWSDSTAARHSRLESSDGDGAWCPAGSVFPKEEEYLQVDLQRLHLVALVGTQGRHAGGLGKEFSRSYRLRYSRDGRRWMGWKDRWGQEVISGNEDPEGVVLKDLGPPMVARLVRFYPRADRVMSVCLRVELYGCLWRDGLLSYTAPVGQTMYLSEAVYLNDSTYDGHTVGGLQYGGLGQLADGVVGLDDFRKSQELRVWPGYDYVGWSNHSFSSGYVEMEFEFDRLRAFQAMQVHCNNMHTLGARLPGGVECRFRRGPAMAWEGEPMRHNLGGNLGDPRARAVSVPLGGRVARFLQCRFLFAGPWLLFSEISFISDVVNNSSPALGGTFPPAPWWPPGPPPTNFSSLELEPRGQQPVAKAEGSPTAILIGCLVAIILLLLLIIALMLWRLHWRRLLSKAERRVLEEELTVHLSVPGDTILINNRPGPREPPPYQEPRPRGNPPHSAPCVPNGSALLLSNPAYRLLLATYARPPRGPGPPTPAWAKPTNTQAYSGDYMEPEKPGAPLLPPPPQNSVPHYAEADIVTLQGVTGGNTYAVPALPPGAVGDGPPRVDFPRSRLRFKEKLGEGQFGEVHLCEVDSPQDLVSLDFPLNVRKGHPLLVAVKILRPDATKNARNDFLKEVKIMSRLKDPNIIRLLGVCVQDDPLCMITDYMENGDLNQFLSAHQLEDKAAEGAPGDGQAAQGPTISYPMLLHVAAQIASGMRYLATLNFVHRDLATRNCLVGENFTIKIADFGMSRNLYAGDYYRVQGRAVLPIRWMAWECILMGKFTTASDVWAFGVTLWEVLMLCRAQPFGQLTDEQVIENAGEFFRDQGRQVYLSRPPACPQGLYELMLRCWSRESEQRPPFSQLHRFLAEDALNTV
Sequence of DDR2 (Q16832 22-855): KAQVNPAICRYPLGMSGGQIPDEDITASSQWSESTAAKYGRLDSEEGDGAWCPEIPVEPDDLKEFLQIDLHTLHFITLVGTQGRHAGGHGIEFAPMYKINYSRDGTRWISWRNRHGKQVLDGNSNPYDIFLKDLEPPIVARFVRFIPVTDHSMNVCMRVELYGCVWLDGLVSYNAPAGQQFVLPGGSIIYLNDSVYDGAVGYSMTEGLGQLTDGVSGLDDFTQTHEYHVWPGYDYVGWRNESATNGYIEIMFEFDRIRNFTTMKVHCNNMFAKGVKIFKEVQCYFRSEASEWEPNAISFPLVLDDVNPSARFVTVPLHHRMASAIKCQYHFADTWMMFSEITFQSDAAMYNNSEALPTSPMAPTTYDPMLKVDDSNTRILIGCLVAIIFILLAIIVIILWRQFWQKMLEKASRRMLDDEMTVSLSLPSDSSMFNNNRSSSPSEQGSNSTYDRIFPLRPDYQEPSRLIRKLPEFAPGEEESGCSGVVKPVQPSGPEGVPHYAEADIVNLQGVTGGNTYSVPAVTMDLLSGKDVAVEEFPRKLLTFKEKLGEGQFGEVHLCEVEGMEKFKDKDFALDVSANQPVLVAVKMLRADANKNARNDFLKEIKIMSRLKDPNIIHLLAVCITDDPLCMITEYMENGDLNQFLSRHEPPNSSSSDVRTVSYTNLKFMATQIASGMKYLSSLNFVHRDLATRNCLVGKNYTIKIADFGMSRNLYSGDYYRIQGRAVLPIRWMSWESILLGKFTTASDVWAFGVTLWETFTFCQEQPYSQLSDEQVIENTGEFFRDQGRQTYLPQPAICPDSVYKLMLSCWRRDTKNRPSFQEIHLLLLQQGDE

Row | Ki (DDR2) [nM] | Ki (DDR1) [nM] | SMILES
1 | 25 to 60 | 10 to 25 | COCCn1cc(Nc2ccc(N3CC[C@@H](c4cc(C(=O)Nc5cccc(C(F)(F)F)c5)ccc4C)C3)cn2)cn1 [Example 47, (S)-3-(1-(6-((1-(2-methoxyethyl)-1H-pyrazol-4-yl)amino)pyridin-3-yl)pyrrolidin-3-yl)-4-methyl-N-(3-(trifluoromethyl)phenyl)benzamide]
2 | > 60 | < 10 | Cc1ccc(C(=O)Nc2cccc(C(F)(F)F)c2)cc1[C@@H]1CCN(c2cncc(N3CCC(F)(F)CC3)c2)C1 [Example 31, (S)-3-(1-(5-(4,4-difluoropiperidin-1-yl)pyridin-3-yl)pyrrolidin-3-yl)-4-methyl-N-(3-(trifluoromethyl)phenyl)benzamide]
3 | 25 to 60 | < 10 | Cc1ccc(C(=O)Nc2cccc(C(F)(F)F)c2)cc1[C@@H]1CCN(c2ccc(N)nc2)C1 [Example 50, (S)-3-(1-(6-aminopyridin-3-yl)pyrrolidin-3-yl)-4-methyl-N-(3-(trifluoromethyl)phenyl)benzamide]
4 | 10 to 25 | < 10 | Cc1ccc(C(=O)Nc2cccc(C(F)(F)F)c2)cc1[C@@H]1CCN(c2cncc(N3CC4(COC4)C3)c2)C1 [Example 37, (S)-3-(1-(5-(2-oxa-6-azaspiro[3.3]heptan-6-yl)pyridin-3-yl)pyrrolidin-3-yl)-4-methyl-N-(3-(trifluoromethyl)phenyl)benzamide]
5 | 10 to 25 | < 10 | Cc1ccc(C(=O)Nc2cccc(C(F)(F)F)c2)cc1[C@@H]1CCN(c2cncc(Nc3cnn(C)c3)c2)C1 [Example 45, (S)-4-methyl-3-(1-(5-((1-methyl-1H-pyrazol-4-yl)amino)pyridin-3-yl)pyrrolidin-3-yl)-N-(3-(trifluoromethyl)phenyl)benzamide]
6 | < 10 | < 10 | Cc1ccc(C(=O)Nc2cccc(C(F)(F)F)c2)cc1C1CCN(c2cncc(OCCN(C)C)c2)C1 (centres unmarked) [Example 23, 3-(1-(5-(2-(dimethylamino)ethoxy)pyridin-3-yl)pyrrolidin-3-yl)-4-methyl-N-(3-(trifluoromethyl)phenyl)benzamide]
7 | < 10 | < 10 | CC(=O)Nc1cncc(N2CC[C@@H](c3cc(C(=O)Nc4cccc(C(F)(F)F)c4)ccc3C)C2)c1 [Example 40, (S)-3-(1-(5-acetamidopyridin-3-yl)pyrrolidin-3-yl)-4-methyl-N-(3-(trifluoromethyl)phenyl)benzamide]
8 | 25 to 60 | < 10 | Cc1ccc(C(=O)Nc2cccc(C(F)(F)F)c2)cc1C1CCN(c2cncc(OCCN3CCOCC3)c2)C1 (centres unmarked) [Example 5, 4-methyl-3-(1-(5-(2-morpholinoethoxy)pyridin-3-yl)pyrrolidin-3-yl)-N-(3-(trifluoromethyl)phenyl)benzamide]
9 | < 10 | < 10 | CC(=O)Nc1cc(N2CC[C@@H](c3cc(C(=O)Nc4cccc(C(F)(F)F)c4)ccc3C)C2)ccn1 [Example 41, (S)-3-(1-(2-acetamidopyridin-4-yl)pyrrolidin-3-yl)-4-methyl-N-(3-(trifluoromethyl)phenyl)benzamide]
10 | > 60 | 25 to 60 | Cc1ccc(C(=O)Nc2cccc(C(F)(F)F)c2)cc1C1CCN(c2ccnc(C#N)c2)C1 (centres unmarked) [Example 24, 3-(1-(2-cyanopyridin-4-yl)pyrrolidin-3-yl)-4-methyl-N-(3-(trifluoromethyl)phenyl)benzamide]
11 | 10 to 25 | < 10 | Cc1ccc(C(=O)Nc2ccc(CN(C)C)c(C(F)(F)F)c2)cc1[C@@H]1CCN(c2cncc(C(N)=O)c2)C1 [Example 58, (S)-5-(3-(5-((4-((dimethylamino)methyl)-3-(trifluoromethyl)phenyl)carbamoyl)-2-methylphenyl)pyrrolidin-1-yl)nicotinamide]
12 | 10 to 25 | < 10 | Cc1ccc(C(=O)Nc2cccc(C(F)(F)F)c2)cc1C1CCN(c2cncc(NCCN3CCOCC3)c2)C1 (centres unmarked) [Example 22, 4-methyl-3-(1-(5-((2-morpholinoethyl)amino)pyridin-3-yl)pyrrolidin-3-yl)-N-(3-(trifluoromethyl)phenyl)benzamide]
13 | < 10 | < 10 | COCCNC(=O)c1cncc(N2CC[C@@H](c3cc(C(=O)Nc4cccc(C(F)(F)F)c4)ccc3C)C2)c1 [Example 35, (S)-N-(2-methoxyethyl)-5-(3-(2-methyl-5-((3-(trifluoromethyl)phenyl)carbamoyl)phenyl)pyrrolidin-1-yl)nicotinamide]
14 | 25 to 60 | 10 to 25 | Cc1ccc(C(=O)Nc2cccc(C(F)(F)F)c2)cc1C1CCN(c2ccnc(C(N)=O)c2)C1 (single isomer, unassigned) [Example 55, 4-(3-(2-methyl-5-((3-(trifluoromethyl)phenyl)carbamoyl)phenyl)pyrrolidin-1-yl)picolinamide]
15 | 25 to 60 | 10 to 25 | Cc1ccc(C(=O)Nc2cccc(C(F)(F)F)c2)cc1[C@@H]1CCN(c2ccnc3[nH]ccc23)C1 [Example 42, (S)-3-(1-(1H-pyrrolo[2,3-b]pyridin-4-yl)pyrrolidin-3-yl)-4-methyl-N-(3-(trifluoromethyl)phenyl)benzamide]
16 | 10 to 25 | < 10 | Cc1ccc(C(=O)Nc2ccc(CN3CCOCC3)c(C(F)(F)F)c2)cc1[C@@H]1CCN(c2cncc(C(N)=O)c2)C1 [Example 56, (S)-5-(3-(2-methyl-5-((4-(morpholinomethyl)-3-(trifluoromethyl)phenyl)carbamoyl)phenyl)pyrrolidin-1-yl)nicotinamide]
17 | 10 to 25 | < 10 | CNc1ncc(N2CC[C@@H](c3cc(C(=O)Nc4cccc(C(F)(F)F)c4)ccc3C)C2)cn1 [Example 49, (S)-4-methyl-3-(1-(2-(methylamino)pyrimidin-5-yl)pyrrolidin-3-yl)-N-(3-(trifluoromethyl)phenyl)benzamide]
18 | < 10 | < 10 | Cc1ccc(C(=O)Nc2cccc(C(F)(F)F)c2)cc1C1CCN(c2ccnc(C(N)=O)c2)C1 (racemic) [Example 53, 4-(3-(2-methyl-5-((3-(trifluoromethyl)phenyl)carbamoyl)phenyl)pyrrolidin-1-yl)picolinamide]
19 | 25 to 60 | < 10 | Cc1ccc(C(=O)Nc2cccc(C(F)(F)F)c2)cc1C1CCN(c2cncc(NCCN(C)C)c2)C1 (centres unmarked) [Example 21, 3-(1-(5-((2-(dimethylamino)ethyl)amino)pyridin-3-yl)pyrrolidin-3-yl)-4-methyl-N-(3-(trifluoromethyl)phenyl)benzamide]
20 | < 10 | < 10 | Cc1ccc(C(=O)Nc2cccc(C(F)(F)F)c2)cc1[C@@H]1CCN(c2cccnc2)C1 [Example 16, (S)-4-methyl-3-(1-(pyridin-3-yl)pyrrolidin-3-yl)-N-(3-(trifluoromethyl)phenyl)benzamide]
21 | 10 to 25 | < 10 | Cc1ccc(C(=O)Nc2cccc(C(F)(F)F)c2)cc1[C@@H]1CCN(c2cncc(C(F)F)c2)C1 [Example 38, (S)-3-(1-(5-(difluoromethyl)pyridin-3-yl)pyrrolidin-3-yl)-4-methyl-N-(3-(trifluoromethyl)phenyl)benzamide]
22 | 10 to 25 | < 10 | CNC(=O)c1cncc(N2CC[C@H](c3cc(C(=O)Nc4cccc(C(F)(F)F)c4)ccc3C)C2)c1 [Example 28, (R)-N-methyl-5-(3-(2-methyl-5-((3-(trifluoromethyl)phenyl)carbamoyl)phenyl)pyrrolidin-1-yl)nicotinamide]
23 | > 60 | 10 to 25 | Cc1ccc(C(=O)Nc2cccc(C(F)(F)F)c2)cc1[C@@H]1CCN(c2cncc(N3CCC4(COC4)C3)c2)C1 [Example 39, (S)-3-(1-(5-(2-oxa-6-azaspiro[3.4]octan-6-yl)pyridin-3-yl)pyrrolidin-3-yl)-4-methyl-N-(3-(trifluoromethyl)phenyl)benzamide]
24 | 25 to 60 | < 10 | CO[C@@H]1CCCN(c2cncc(N3CC[C@@H](c4cc(C(=O)Nc5cccc(C(F)(F)F)c5)ccc4C)C3)c2)C1 [Example 36, 3-((S)-1-(5-((R)-3-methoxypiperidin-1-yl)pyridin-3-yl)pyrrolidin-3-yl)-4-methyl-N-(3-(trifluoromethyl)phenyl)benzamide]
25 | 10 to 25 | < 10 | Cc1ccc(C(=O)Nc2cccc(C(F)(F)F)c2)cc1C1CCN(c2cncc(C(N)=O)c2)C1 (centres unmarked) [Example 17, 5-(3-(2-methyl-5-((3-(trifluoromethyl)phenyl)carbamoyl)phenyl)pyrrolidin-1-yl)nicotinamide]
26 | < 10 | < 10 | CNC(=O)c1cncc(N2CC[C@@H](c3cc(C(=O)Nc4cccc(C(F)(F)F)c4)ccc3C)C2)c1 [Example 26, (S)-N-methyl-5-(3-(2-methyl-5-((3-(trifluoromethyl)phenyl)carbamoyl)phenyl)pyrrolidin-1-yl)nicotinamide]
27 | < 10 | < 10 | Cc1ccc(C(=O)Nc2cccc(C(F)(F)F)c2)cc1C1CCN(c2cncc(OCCN3CCN(C)CC3)c2)C1 (centres unmarked) [Example 6, 4-methyl-3-(1-(5-(2-(4-methylpiperazin-1-yl)ethoxy)pyridin-3-yl)pyrrolidin-3-yl)-N-(3-(trifluoromethyl)phenyl)benzamide]
28 | 10 to 25 | < 10 | Cc1ccc(C(=O)Nc2cccc(C(F)(F)F)c2)cc1[C@H]1CCN(c2cncc(C(N)=O)c2)C1 [Example 18, (R)-5-(3-(2-methyl-5-((3-(trifluoromethyl)phenyl)carbamoyl)phenyl)pyrrolidin-1-yl)nicotinamide]
